The target of data set [1] is T1, ghrelin receptor (Rattus norvegicus, UniProt O08725).
T1 construct: Strips of approximately 1 cm (5 mm wide) of gastric fundus were cut out along the longitudinal axis; from tissue; host or cells: rat gastric fundus strips
Briefly: Ghrelin antagonism in electrically stimulated rat gastric fundus strips (called In Vivo Test). As to conditions: isolated rat gastric fundus strips, electric-field stimulation, ghrelin 0.1 nM-1 μM concentration-response curves, antagonist contact time 30 minutes; read-out: IC50, antagonist activity towards the ghrelin receptor. How it is done:
Male Crl CD BR rats (Charles River, Italy) weighing 150-175 g were housed in a chamber at regulated temperature (22±1° C.) and humidity (55±10%) and with a 12-hour lightness-darkness cycle, for at least 7 days before their use. Feed and water were available ad libitum. The feed was removed 18 hours before sacrificing the animals. The rats were sacrificed by cervical dislocation, and the stomach was removed surgically, opened along the shorter curvature and placed in a Krebs solution (of composition (mM): 118.4 NaCl; 4.7 KCl; 2.5 CaCl2; 3.7 NaH2PO4; 1.2 MgSO4; 25 NaHCO3; 5.6 glucose). The animals were cared for and sacrificed according to the Sanofi-Aventis international code of ethics and the international principles governing the care and treatment of laboratory animals (EEC Directive 86/609, DJL358, 1, 12 Dec. 1987). […] The contractions were recorded by computer with a data recording and analysis system (Power Lab, Chart 5) connected to isotonic transducers (Ugo Basile, Varese, Italy) via preamplifiers (Octal Bridge Amp). […] The pKb values for the antagonists were calculated according to the Cheng-Prusoff equation (Kenakin et al., Competitive Antagonism, Pharmacologic Analysis of Drug-Receptor Interaction, 3rd edition, 331-373, Philadelphia, New York; Raven: Lippincott, 1997).

Two compounds from US9889130B2, “Substituted 3-benzofuranyl-indol-2-one-3-acetamididopiperazine derivatives, preparation thereof, and therapeutic use thereof” (SANOFI, priority 2009, dated 2018) can be followed below.

pIC50: −log10 of the molar value.

T1 sequence (O08725 whole entry): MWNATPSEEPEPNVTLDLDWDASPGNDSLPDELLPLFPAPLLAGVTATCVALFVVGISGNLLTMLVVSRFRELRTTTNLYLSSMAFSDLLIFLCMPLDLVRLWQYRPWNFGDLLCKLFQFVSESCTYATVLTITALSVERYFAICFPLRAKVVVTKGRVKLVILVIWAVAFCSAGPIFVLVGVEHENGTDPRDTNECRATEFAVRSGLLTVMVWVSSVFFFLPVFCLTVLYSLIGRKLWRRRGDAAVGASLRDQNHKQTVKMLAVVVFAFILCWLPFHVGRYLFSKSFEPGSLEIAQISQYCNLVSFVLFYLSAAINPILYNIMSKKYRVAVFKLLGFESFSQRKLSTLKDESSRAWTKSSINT

As to `CCN1CCN(C(C)C(=O)NC2(c3ccc4occc4c3)C(=O)Nc3cc(Cl)cc(Cl)c32)CC1` (single isomer, unassigned; (+)) [Example 2, (+)-N-[4,6-Dichloro-3-(benzofuran-5-yl)-2-oxo-2,3-dihydro-1H-indol-3-yl]-2-(4-ethylpiperazin-1-yl)propionamide], the melting point (usually the temperature of the solid-liquid transition) is 137 to 138 °C. For the same compound, the pIC50 (commonly the IC50 on a negative log10 scale, so that one unit is a factor of ten) in data set [1] was 7.92. For `CCN1C(C)CN(CC(=O)NC2(c3ccc4occc4c3)C(=O)Nc3cc(Cl)cc(Cl)c32)CC1C` (single isomer, unassigned; (+)) [Example 1, (+)-N-[4,6-Dichloro-3-(benzofuran-5-yl)-2-oxo-2,3-dihydro-1H-indol-3-yl]-2-(4-ethyl-3,5-dimethylpiperazin-1-yl)acetamide], the melting point was in the range of 157 to 160 °C.
